Experimental data taken from patent US20250091911A1, “NANOFILTRATION SYSTEM AND METHOD INCLUDING PRETREATMENT WITH GREEN SORPTION MEDIA” (University of Central Florida Research Foundation, Inc., priority 2023, published 2025).

Assays:
[1] = Fixed-bed column pretreatment of spiked C-23 canal water with CPS; settings: for Removal via column C3: CPS column 3, 9 h; for Removal via column C1 / Removal via column C2 / average removal percentage by media: CPS; for Removal via column C1 / Removal via column C2: 9 h; for average removal percentage by media: triplicate columns
Protocol: (§1) The water samples were collected from the same site of the C-23 canal during both the dry and wet seasons. However, only wet season water samples were used in the experiment. The water samples were analyzed for both long-chain (PFOA and PFOS) and short-chain (Perfluorobutanoic acid [PFBA] and Perfluorobutanesulfonic acid [PFBS]) PFAS following the modified EPA 537.1 method (Shoemaker & Tettenhorst, 2020). Through this method, an aliquot of a 250 mL water sample containing analytes and internal standards is extracted via solid phase extraction. The extracted analytes and internal standards are then eluted with methanol and ammonium hydroxide in methanol solvent. Then the eluted samples are dried with nitrogen and reconstituted to 1 mL volume with a buffer solution. The samples are then injected into a C18 liquid chromatography column, and the PFAS compounds are separated by a gradient of pure methanol and 20 mM ammonium acetate. Finally, the eluted compounds are detected, and their concentrations are measured via tandem mass spectrometry. The method detection limits (MDLs) for PFBA, PFBS, PFOA, and PFOS were 0.5 ng·L^−1, 2 ng·L^−1, 0.5 ng·L^−1, and 1 ng·L^−1, respectively. The concentration of calcium ion (Ca^2+) was analyzed at Eurofins Flowers's Chemical Laboratories (Altamonte Springs, Florida) following EPA method 6010D using inductively coupled plasma optical emission spectroscopy (MDL=0.096 mg·L^−1). Total organic carbon (TOC) and dissolved organic carbon (DOC) were measured using a TOC analyzer following EPA method 415.3.
(§2) Water samples collected from the C-23 canal were first fortified with PFOS and PFOA and then used as influents to the pretreatment column containing one of the two green sorption media. Note the water samples were not fortified with PFBA and PFBS. The green sorption media effluent served as the feedwater for the nanofiltration unit of the proposed water treatment system. The nanofiltration membrane unit without any green sorption media-based pretreatment served as the “control.” The integration of a green sorption media (CPS or ZIPGEM) with crossflow nanofiltration is herein referred to as a water treatment system, denoted as CPS-nanofiltration or ZIPGEM-nanofiltration. The CPS and ZIPGEM column influents and effluents and nanofiltration permeates were analyzed for both long-chain (PFOS and PFOA) and short-chain (PFBS and PFBA) PFAS. FIG. 3 presents the green sorption media-nanofiltration hybrid treatment scheme.
C-23 canal water was stored in a walk-in refrigerator at […] after collection. For the pretreatment experiment, a total of 60 L of water was used as influents to the CPS and ZIPGEM columns. Although the raw water was spiked with 70 ng·L^−1 of PFOA and PFOS each, the short-chain PFAS (PFBA, PFBS) were at their indigenous concentrations. A peristaltic pump was used to deliver the water to the columns at a constant flowrate of 14 ml·min^−1. Three columns (triplicate) with 3 ft length and 4-inch diameter containing 2,600 ml of media were set up for each media, and all samples were analyzed in triplicate (FIG. 4). The fixed-bed column experiments were run for more than 48 h, and effluents were taken at different time intervals to be used as feedwaters for the nanofiltration treatment that followed. […] At least 5 L of column effluent were collected to be used as the nanofiltration feed, and the stated effluent at 9 h for CPS was collected from 0 h until 9 h, whereas effluent at 30 h for ZIPGEM was collected from 9 h until 30 h. The collected effluents from the column study were stored in a refrigerator until they were used for the nanofiltration experiment. FIG. 4 illustrates the experimental setup for the pretreatment CPS and ZIPGEM process.
The average removal efficiencies of each media pretreatment were calculated based on PFAS concentrations in the influents and effluents of triplicate columns, as disclosed in TABLE 5. […]

[2] = Crossflow nanofiltration of ZIPGEM-pretreated water; settings: for PFAS concentration, membrane permeates (MP): ZIPGEM-nanofiltration @ 30 h
Protocol: as §1
A commercially available nanofiltration membrane (membrane ID: XN45) was used for the crossflow nanofiltration experiment. The membranes were acquired as flat sheets and cut into coupons of required sizes (active surface area of 42 cm^2) to fit into a membrane cell (CF042).
A bench-scale crossflow filtration setup was used in these experimental methods. The experimental setup consisted of a feed tank, a centrifugal pump, three CF042 membrane cells connected to pressure gauges, check valves, and flowmeters. A recirculating chiller was used for regulating the temperature at 20° C. Three high-precision balances were used to measure the weight of the collected permeate and to calculate the flowrates. The scales were connected to a computer for data acquisition.
Before each experimental run, the membrane cells and tubing were cleaned by running DI water as feed without placing any membrane coupons inside the cells. Then the membrane coupons were mounted into the cells firmly and compacted at 100 psi for at least 4 h using DI water. After that, 5 L of the effluents from the pretreatment media (i.e., the C-23 water samples that were run through the CPS and ZIPGEM) were taken as feedwater for each nanofiltration filtration experiment. The experiments were run for 24 h before collecting permeates and feed samples for analysis. The experiments were conducted at a constant flowrate of 1.0 L·min^−1, with a corresponding cross flow velocity of 0.18 m·s^−1. The transmembrane pressure was initially set to 110 psi at the beginning of the permeate collection by regulating inlet and retentate valves. However, the pressure changed over time as feed concentration increased during the permeate collection. The experiment was run in total recirculation mode, whereby both the retentate and permeate were recycled, except the time of permeate collection.
The average removal efficiencies of each media pretreatment were calculated based on PFAS concentrations in the influents and effluents of triplicate columns, as disclosed in TABLE 5. […] The overall efficiency of the hybrid treatment was calculated by comparing the average concentrations of PFAS in the influents of the green sorption media pretreatment columns and the nanofiltration permeates, as disclosed in TABLE 6. […]

[3] = Control: nanofiltration without green sorption media pretreatment
Protocol: as §1, §2
A bench-scale crossflow filtration setup was used in these experimental methods. The experimental setup consisted of a feed tank, a centrifugal pump, three CF042 membrane cells connected to pressure gauges, check valves, and flowmeters. A recirculating chiller was used for regulating the temperature at 20° C. […]

[4] = feed = ZIPGEM column 1 effluent
[5] = feed = ZIPGEM column 2 effluent
[6] = feed = ZIPGEM column 3 effluent

Row | Compound | Removal via column C3 [1] [%] | Removal via column C1 [1] [%] | Removal via column C2 [1] [%] | average removal percentage by media [1] | PFAS concentration, membrane permeates (MP) ([2]; Col 1) [ng/L] | PFAS concentration, membrane permeates (MP) ([2]; Col 2) [ng/L] | PFAS concentration, membrane permeates (MP) ([2]; Col 3) [ng/L] | nanofiltration membrane removal [2, 4] [%] | nanofiltration membrane removal [2, 5] [%] | nanofiltration membrane removal [2, 6] [%] | % Removal by Control, O [3] [%]
1 | O=S(=O)(O)C(F)(F)C(F)(F)C(F)(F)C(F)(F)C(F)(F)C(F)(F)C(F)(F)C(F)(F)F [PFOS, Perfluorooctanesulfonic acid] | 100 | 100 | 100 | 100 | 1.70 | 0.79 | 1.05 | 100 | 100 | 100 | 84
2 | O=C(O)C(F)(F)C(F)(F)C(F)(F)C(F)(F)C(F)(F)C(F)(F)C(F)(F)F [PFOA, Perfluorooctanoic acid] | 88 | 96 | 85 | 90 | 21.67 | 14.00 | 23.67 | 66 | 78 | 68 | 82
3 | O=C(O)C(F)(F)C(F)(F)C(F)(F)F [PFBA, Perfluorobutanoic acid] | 29 | 21 | 24 | 25 | 4.43 | 4.77 | 4.70 | 37 | 32 | 36 | 67
4 | O=S(=O)(O)C(F)(F)C(F)(F)C(F)(F)C(F)(F)F [PFBS, Perfluorobutanesulfonic acid] | 25 | 20 | 27 | 24 | 4.67 | 4.23 | 5.10 | 23 | 32 | 36 | 44
